{
  "source": "patent EP0164635A2",
  "about": "“Imidazothiazolemethylene-acetohydrazide derivatives, preparation thereof and pharmaceutical composition having diuretic activity” (MEDIOLANUM FARMACEUTICI s.r.l., priority 1984, dated 1985)",
  "key": {"[1]": {"test_system": "rats", "experiment": "Diuretic activity: urinary sodium excretion over 6 hours after oral administration", "format": "in vivo, rat", "details": "read-out: Diuretic effect %; for response vs control in vivo at 20 mg/kg: dose 20 mg/kg oral; for response vs control in vivo at 5 mg/kg: dose 5 mg/kg oral", "protocol": "The first series of tests was carried out to rats orally administered with distilled water (25 ml/kg) containing the product under test, previously suspended in Tween 80 (1% v/v with respect to water). Urina of the 6 hours following the treatment was collected in order to measure the sodium concentration, by means of atomic absorption. The ratio of the meq/100 g of body weight of the treated animals to the corresponding ratio of the meq/100 g of body weight of the control animals (treated with the sole vehicle) was calculated, in order to determine the dose of the test compound doubling or trebling or anyway increasing the sodium excretion."}, "[2]": {"experiment": "in vivo", "details": "rat"}, "[3]": {"test_system": "rat", "experiment": "Excreted urinary electrolytes after oral administration, with a second water load after 0-3 h", "format": "in vivo", "protocol": "(§1) The compounds were administered by the oral route, under the same conditions as described in the previous test, but the animals, after the O-3 hours interval, were treated with further 25 ml/kg of distilled water, by intubation."}, "[4]": {"test_system": "rat", "experiment": "Excreted urinary volumes after oral administration, with a second water load after 0-3 h", "format": "in vivo", "protocol": "as §1"}, "[5]": {"details": "rat, sodium urinary excretion in 6 h vs controls (control = 100)"}},
  "data": [
    {"smiles": "CC(=O)Nc1nnc(S(N)(=O)=O)s1", "note": "[Acetazolamide, acetazolamide, reference compound]", "values": [
      {"measurement": "response vs control in vivo at 2.5 mg/kg", "setting": "[1]; Rattus norvegicus, po, 6 h", "value": 200, "unit": "%"}
    ]},
    {"smiles": "CN(C)CC(=O)NN=Cc1c(Cl)nc2sccn12", "note": "[Example 1]", "values": [
      {"measurement": "response vs control in vivo at 20 mg/kg", "setting": "[1]; [5]", "value": 120, "unit": "%"},
      {"measurement": "LD50", "setting": "[2]; ip", "value": "~250", "unit": "mg/kg"},
      {"measurement": "LD50", "setting": "[2]; po", "value": "~1500", "unit": "mg/kg"}
    ]},
    {"smiles": "Cc1nc2sccn2c1C=NNC(=O)CN(C)C", "note": "[Example 2]", "values": [
      {"measurement": "LD50", "setting": "[2]; ip", "value": "~600", "unit": "mg/kg"},
      {"measurement": "LD50", "setting": "[2]; po", "value": "~1500", "unit": "mg/kg"}
    ]},
    {"smiles": "CN(C)CC(=O)NN=Cc1c(-c2ccccc2)nc2sccn12", "note": "[Example 3]", "values": [
      {"measurement": "response vs control in vivo at 5 mg/kg", "setting": "[1]; [5]", "value": 310, "unit": "%"},
      {"measurement": "LD50", "setting": "[2]; ip", "value": "~600", "unit": "mg/kg"},
      {"measurement": "LD50", "setting": "[2]; po", "value": "~600", "unit": "mg/kg"}
    ]},
    {"smiles": "CN(C)CC(=O)NN=Cc1c(-c2ccc(Cl)cc2)nc2sccn12", "note": "[Example 4]", "values": [
      {"measurement": "response vs control in vivo at 20 mg/kg", "setting": "[1]; [5]", "value": 170, "unit": "%"},
      {"measurement": "LD50", "setting": "[2]; ip", "value": "> 1000", "unit": "mg/kg"},
      {"measurement": "LD50", "setting": "[2]; po", "value": "> 1000", "unit": "mg/kg"}
    ]},
    {"smiles": "Cc1ccc(-c2nc3sccn3c2C=NNC(=O)CN(C)C)cc1", "note": "[Example 5]", "values": [
      {"measurement": "response vs control in vivo at 5 mg/kg", "setting": "[1]; [5]", "value": 130, "unit": "%"},
      {"measurement": "LD50", "setting": "[2]; ip", "value": "> 3000", "unit": "mg/kg"},
      {"measurement": "LD50", "setting": "[2]; po", "value": "> 3000", "unit": "mg/kg"}
    ]},
    {"smiles": "Cc1cn2c(C=NNC(=O)CN(C)C)c(C)nc2s1", "note": "[Example 6, N,N-dimethylamino-acetyl-[[2-methyl-6-methyl-imidazo[2,1-a]thiazole-5-yl]methylene]-hydrazide]", "values": [
      {"measurement": "response vs control in vivo at 10 mg/kg", "setting": "[1]; dose 10 mg/kg oral, rat, sodium urinary excretion in 6 h vs controls (control = 100)", "value": 180, "unit": "%"},
      {"measurement": "LD50", "setting": "[2]; ip", "value": "~600", "unit": "mg/kg"},
      {"measurement": "LD50", "setting": "[2]; po", "value": "~1000", "unit": "mg/kg"}
    ]},
    {"smiles": "Cc1csc2nc(-c3ccccc3)c(C=NNC(=O)CN(C)C)n12", "note": "[Example 7]", "values": [
      {"measurement": "response vs control in vivo at 0.5 mg/kg", "setting": "[1]; dose 0.5 mg/kg oral, rat, sodium urinary excretion in 6 h vs controls (control = 100)", "value": 250, "unit": "%"},
      {"measurement": "EXCRETED URINARY ELECTROLYTES WITH RESPECT TO BODY WEIGHT, Cl^-", "setting": "[3]; 10 mg/kg, 0-3 h", "value": 2.55, "unit": "mEq/kg"},
      {"measurement": "EXCRETED URINARY ELECTROLYTES WITH RESPECT TO BODY WEIGHT, K^+", "setting": "[3]; 10 mg/kg, 0-3 h", "value": 1.04, "unit": "mEq/kg"},
      {"measurement": "EXCRETED URINARY ELECTROLYTES WITH RESPECT TO BODY WEIGHT, Na^+", "setting": "[3]; 10 mg/kg, 0-3 h", "value": 2.55, "unit": "mEq/kg"},
      {"measurement": "EXCRETED URINARY ELECTROLYTES WITH RESPECT TO BODY WEIGHT, Cl^-", "setting": "[3]; 10 mg/kg, 0-6 h", "value": 2.57, "unit": "mEq/kg"},
      {"measurement": "EXCRETED URINARY ELECTROLYTES WITH RESPECT TO BODY WEIGHT, K^+", "setting": "[3]; 10 mg/kg, 0-6 h", "value": 1.29, "unit": "mEq/kg"},
      {"measurement": "EXCRETED URINARY ELECTROLYTES WITH RESPECT TO BODY WEIGHT, Na^+", "setting": "[3]; 10 mg/kg, 0-6 h", "value": 2.71, "unit": "mEq/kg"},
      {"measurement": "EXCRETED URINARY ELECTROLYTES WITH RESPECT TO BODY WEIGHT, Cl^-", "setting": "[3]; 10 mg/kg, 3-6 h", "value": 0.025, "unit": "mEq/kg"},
      {"measurement": "EXCRETED URINARY ELECTROLYTES WITH RESPECT TO BODY WEIGHT, K^+", "setting": "[3]; 10 mg/kg, 3-6 h", "value": 0.25, "unit": "mEq/kg"},
      {"measurement": "EXCRETED URINARY ELECTROLYTES WITH RESPECT TO BODY WEIGHT, Na^+", "setting": "[3]; 10 mg/kg, 3-6 h", "value": 0.16, "unit": "mEq/kg"},
      {"measurement": "EXCRETED URINARY ELECTROLYTES WITH RESPECT TO BODY WEIGHT, Cl^-", "setting": "[3]; head prints 10 mg/kg, 0-3 h", "value": 1.53, "unit": "mEq/kg"},
      {"measurement": "EXCRETED URINARY ELECTROLYTES WITH RESPECT TO BODY WEIGHT, K^+", "setting": "[3]; head prints 10 mg/kg, 0-3 h", "value": 0.93, "unit": "mEq/kg"},
      {"measurement": "EXCRETED URINARY ELECTROLYTES WITH RESPECT TO BODY WEIGHT, Na^+", "setting": "[3]; head prints 10 mg/kg, 0-3 h", "value": 2.03, "unit": "mEq/kg"},
      {"measurement": "EXCRETED URINARY ELECTROLYTES WITH RESPECT TO BODY WEIGHT, Cl^-", "setting": "[3]; head prints 10 mg/kg, 0-6 h", "value": 1.53, "unit": "mEq/kg"},
      {"measurement": "EXCRETED URINARY ELECTROLYTES WITH RESPECT TO BODY WEIGHT, K^+", "setting": "[3]; head prints 10 mg/kg, 0-6 h", "value": 1.26, "unit": "mEq/kg"},
      {"measurement": "EXCRETED URINARY ELECTROLYTES WITH RESPECT TO BODY WEIGHT, Na^+", "setting": "[3]; head prints 10 mg/kg, 0-6 h", "value": 2.17, "unit": "mEq/kg"},
      {"measurement": "EXCRETED URINARY ELECTROLYTES WITH RESPECT TO BODY WEIGHT, Cl^-", "setting": "[3]; head prints 10 mg/kg, 3-6 h", "value": 0.0, "unit": "mEq/kg"},
      {"measurement": "EXCRETED URINARY ELECTROLYTES WITH RESPECT TO BODY WEIGHT, K^+", "setting": "[3]; head prints 10 mg/kg, 3-6 h", "value": 0.33, "unit": "mEq/kg"},
      {"measurement": "EXCRETED URINARY ELECTROLYTES WITH RESPECT TO BODY WEIGHT, Na^+", "setting": "[3]; head prints 10 mg/kg, 3-6 h", "value": 0.14, "unit": "mEq/kg"},
      {"measurement": "LD50", "setting": "[2]; ip", "value": "> 3000", "unit": "mg/kg"},
      {"measurement": "LD50", "setting": "[2]; po", "value": "> 3000", "unit": "mg/kg"},
      {"measurement": "EXCRETED URINARY VOLUMES WITH RESPECT TO BODY WEIGHT", "setting": "[4]; 2.5 mg/kg, 0-3 h", "value": 0.0333, "unit": "L/kg"},
      {"measurement": "EXCRETED URINARY VOLUMES WITH RESPECT TO BODY WEIGHT", "setting": "[4]; 2.5 mg/kg, 0-6 h", "value": 0.0469, "unit": "L/kg"},
      {"measurement": "EXCRETED URINARY VOLUMES WITH RESPECT TO BODY WEIGHT", "setting": "[4]; 2.5 mg/kg, 3-6 h", "value": 0.0136, "unit": "L/kg"},
      {"measurement": "EXCRETED URINARY VOLUMES WITH RESPECT TO BODY WEIGHT", "setting": "[4]; 10 mg/kg, 0-3 h", "value": 0.0326, "unit": "L/kg"},
      {"measurement": "EXCRETED URINARY VOLUMES WITH RESPECT TO BODY WEIGHT", "setting": "[4]; 10 mg/kg, 0-6 h", "value": 0.0474, "unit": "L/kg"},
      {"measurement": "EXCRETED URINARY VOLUMES WITH RESPECT TO BODY WEIGHT", "setting": "[4]; 10 mg/kg, 3-6 h", "value": 0.0147, "unit": "L/kg"}
    ]}
  ]
}
